In article PMC7531004, “Discovery of gramicidin A analogues with altered activities by multidimensional screening of a one-bead-one-compound library” (Nature Communications, 2020):
Where a SMILES comes first, the peptide text is derived from it. [ ]: non-standard residue; d: D form. The star is where a group is joined. NHCH2CH2OH = OCCN*; For = O=C*

How the values were obtained:
[1] = H+/Na+ transport assay of bead-derived peptides (one-point); assay type: biochemical; design: key: relative activity; mean of two control wells = 1.00; conditions: bead-derived peptide solution, EYPC/EYPG LUVs;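 also: relative to parent gramicidin A activity set to 1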
Method in brief: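 Values are normalized fluorescence, with Triton X-100 defining 100% and untreated LUVs 0%, and the two control wells averaging 1.00. Vesicles carried 1.0 mM pyranine and included egg yolk phosphatidylglycerol. Peptides were incubated with them 30 min at room temperature.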

[2] = tested on: P388 mouse leukemia cells; conditions: 92 h
Method in brief: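 Peptide stocks diluted 250× in growth medium; P388 cells 1 × 10^4 cells/mL final; 37 °C, 5% CO2, 92 h. WST-1 + 1-methoxy PMS, 4 h, A415. Output: % viability.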

[3] = tested on: Streptococcus pyogenes SSI-9; assay: Antibacterial activity assay of bead-derived peptides (three concentrations); assay type: cell-based; design: key: +++: inhibition by the 640-fold diluted peptide solution; ++: inhibition by the 160-fold diluted solution; +: inhibition by the 40-fold diluted solution; -: no inhibition; conditions: S. pyogenes, bead-derived peptide solution, three concentrations
Method in brief: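 First, each peptide stock was diluted 4- and 16-fold in DMSO; next, the three solutions were mixed with S. pyogenes SSI-9 suspension (2 × 10^5 CFU) in cation-adjusted Mueller Hinton Broth plus 5% laked horse blood; finally, plates stood 18 h at 37 °C before checking for grown-cell precipitation.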

Row | Compound | H+/Na+ transport activity normalized against the value of 1 (1.00) [1] | cell viability/% [2] [%] | antibacterial activity [3]
1 | CC(C)C[C@@H](NC(=O)[C@H](C)NC(=O)[C@H](NC(=O)[C@H](C)NC(=O)CNC(=O)[C@@H](NC=O)C(C)C)C(C)C)C(=O)N[C@H](C(=O)N[C@H](CC(C)C)C(=O)N[C@@H](Cc1c[nH]c2ccccc12)C(=O)N[C@@H](C(=O)N[C@@H](Cc1c[nH]c2ccccc12)C(=O)N[C@H](CC(C)C)C(=O)N[C@@H](Cc1c[nH]c2ccccc12)C(=O)N[C@H](CC(C)C)C(=O)N[C@@H](Cc1c[nH]c2ccccc12)C(=O)NCCO)C(C)C)C(C)C [compound 11439] (For-VGA[dV]A[dL]V[dL]W[dV]W[dL]W[dL]W-NHCH2CH2OH) | 1.18 | 8.1 | -
2 | CC(C)C[C@@H](NC(=O)[C@H](C)NC(=O)CNC(=O)[C@@H](NC=O)C(C)C)C(=O)N[C@@H](C)C(=O)N[C@@H](C(=O)N[C@H](C(=O)N[C@@H](C(=O)N[C@@H](Cc1c[nH]c2ccccc12)C(=O)N[C@@H](C(=O)N[C@@H](Cc1c[nH]c2ccccc12)C(=O)N[C@@H](C(=O)N[C@@H](Cc1c[nH]c2ccccc12)C(=O)N[C@@H](C(=O)N[C@@H](Cc1c[nH]c2ccccc12)C(=O)NCCO)C(C)C)C(C)C)C(C)C)[C@H](C)O)C(C)C)C(C)C [compound 12429] (For-VGA[dL]A[dV]V[dT]W[dV]W[dV]W[dV]W-NHCH2CH2OH) | 1.03 | 100.0 | -
3 | CC(C)C[C@@H](NC(=O)[C@@H](NC(=O)[C@H](NC(=O)[C@H](C)NC(=O)[C@H](NC(=O)[C@H](C)NC(=O)CNC(=O)[C@@H](NC=O)C(C)C)[C@H](C)O)C(C)C)C(C)C)C(=O)N[C@@H](Cc1c[nH]c2ccccc12)C(=O)N[C@@H](C(=O)N[C@@H](Cc1c[nH]c2ccccc12)C(=O)N[C@@H](C(=O)N[C@@H](Cc1c[nH]c2ccccc12)C(=O)N[C@@H](C(=O)N[C@@H](Cc1c[nH]c2ccccc12)C(=O)NCCO)C(C)C)C(C)C)C(C)C [compound 9799] (For-VGA[dT]A[dV]V[dL]W[dV]W[dV]W[dV]W-NHCH2CH2OH) | 1.26 | 100.0 | -
4 | CC(C)C[C@@H](NC(=O)[C@H](C)NC(=O)[C@H](NC(=O)[C@H](C)NC(=O)CNC(=O)[C@@H](NC=O)C(C)C)[C@H](C)O)C(=O)N[C@H](C(=O)N[C@H](CC(C)C)C(=O)N[C@@H](Cc1c[nH]c2ccccc12)C(=O)N[C@H](CC(C)C)C(=O)N[C@@H](Cc1c[nH]c2ccccc12)C(=O)N[C@@H](C(=O)N[C@@H](Cc1c[nH]c2ccccc12)C(=O)N[C@H](CC(C)C)C(=O)N[C@@H](Cc1c[nH]c2ccccc12)C(=O)NCCO)C(C)C)C(C)C [compound 5329] (For-VGA[dT]A[dL]V[dL]W[dL]W[dV]W[dL]W-NHCH2CH2OH) | 1.26 | 100.0 | -
5 | CC(C)C[C@@H](NC(=O)[C@H](C)NC(=O)CNC(=O)[C@@H](NC=O)C(C)C)C(=O)N[C@@H](C)C(=O)N[C@@H](C(=O)N[C@H](C(=O)N[C@H](CC(C)C)C(=O)N[C@@H](Cc1c[nH]c2ccccc12)C(=O)N[C@H](CC(C)C)C(=O)N[C@@H](Cc1c[nH]c2ccccc12)C(=O)N[C@H](CC(C)C)C(=O)N[C@@H](Cc1c[nH]c2ccccc12)C(=O)N[C@H](CC(C)C)C(=O)N[C@@H](Cc1c[nH]c2ccccc12)C(=O)NCCO)C(C)C)C(C)C [compound 9628] (For-VGA[dL]A[dV]V[dL]W[dL]W[dL]W[dL]W-NHCH2CH2OH) | 1.16 | 0.0 | +
